# Test results from patent publication US20050132448A1, “Assay for beta cell toxic macrolides” (priority 2001, published 2005).
# Entries after “also recorded” stand apart in the source; their conditions may differ.
# How the values were obtained:
# Format in all cases: in vivo
# Balb/c mice [1] = assay: Long-term effects on random blood glucose, weight and islet morphology/size
# Procedure: FIG. 6 is a graphical representation of islet size following administration of bafilomycin A1. Reduced islet size is a long-term consequence of vacuolar ATPase inhibition. Pancreas morphology was examined at either 1, 7, 26 or 90 days after administration of bafilomycin A1. Islet size was determined by measuring the areas of the pancreas sections positive for staining with insulin antibody using MCID software. • Controls—223 islets from 12 mice • 1 day—81 islets from 3 mice • 7 days—125 islets from 3 mice • 26 days—90 islets from 4 mice • 90 days—81 islets from 4 mice • The black square represents the median, the dotted boxes 25-75th percentiles, bars the 10-90th percentiles, and outliers by dots.
# The pancreas, liver, kidney and brain were dissected from anaesthetised mice and immediately fixed in formalin. Paraffin embedded sections (4 μm) were either stained with haemotoxylin and eosin or prepared for immunohistochemistry or indirect immunofluorescence. Immunostaining was performed on de-paraffinised sections as follows. The section was blocked in PBS containing 1% skim milk powder for 1 hour. Anti-insulin antiserum raised in Guinea pig (Dako) was diluted 1 in 50 in PBS 1% skim milk powder and left at room temperature for 60 minutes. Sections were washed in PBS and incubated with 1:200 dilution of horse radish peroxidase conjugated anti-guinea pig antiserum (Sigma) or a 1:400 dilution of FITC-conjugated anti-guinea pig serum (Sigma) for 1 hour. Endogenous peroxidase activity was inactivated using 0.5% hydrogen peroxide in methanol prior to the antibody incubations and bound HRP conjugated antibody was detected using Sigma FAST-DAB peroxidase tablets. FITC was detected using an Olympus epifluorescence microsocope and images were captured and analysed using a digital camera and MCID software.
# The long-term effects of bafilomycin A1 on blood glucose concentrations and islet morphology were investigated in 4 mice treated twice with a weekly interval. Random blood glucose levels (RBG) and weight were determined, weekly over 90 days and results were compared to a control group of 3 mice treated with carrier solution.
# Balb/c mice [2] = assay: Oral glucose tolerance test (OGTT)
# Procedure: Male Balb/c mice were provided by the Monash University Central Animal House and Breeding Facility. The Monash University Department of Biochemistry Animal Ethics Committee approved all animal experimentation. Bafilomycin A1 (Sigma) was dissolved in 70% ethanol then diluted 1 in 10 with sterile phosphate buffered saline (PBS) to give a working stock of 4.8 μg/ml. Groups of between 3 and 9 mice as indicated were administered 12 μg per kilogram (body weight) bafilomycin A1 by intraperitoneal injection, which should achieve a final concentration in the blood of 275 nM bafilomycin A1 assuming a blood volume of 70 ml per kg for mice. […] Control mice received the ethanol/PBS carrier solution that lacked the inhibitor.
# Groups of 6 control and 6 treated mice were fasted for 6-7 hours then anaesthetised by intraperitoneal injection of 35 mg/kg body weight of pentobarbitone (Nembutal) in order to minimise stress-induced variations in blood glucose. D-glucose (2 mg/g body weight) was delivered into the stomach by gavage as a 200 mg/ml solution. Blood glucose concentrations were determined for the fasted mice and at 15, 30, 60 and 120 minutes after glucose challenge as follows. Whole blood (approximately 60 μl) was collected from the tail vein and glucose concentrations were immediately determined by the glucose oxidase method using a YSI glucose analyser.
# Balb/c mice [3] = assay: Intra-islet insulin by indirect immunofluorescence on pancreas sections
# Procedure: FIG. 2 is a graphical representation of vacuolar ATPase inhibition causing increased islet insulin content of secretory granules in islet β cells. Infra-islet insulin was detected in paraffin embedded sections by indirect immunofluorescence using an anti-pig insulin antibody. Digitised images collected on an epifluorescent microscope were analysed for staining density using MCID image analysis software to provide a semi-quantitative measure of the amount of bound anti-insulin antibody. At least 9 islets were measured for each of 5 control mice and 6 bafilomycin A1-treated mice, and individual values for each islet from all mice in each group were combined for analysis. A measurement was made in each islet, and the background measured in exocrine tissue adjacent to the same islet was subtracted. Units are arbitrary fluorescence units and the data are expressed as the mean and standard deviation.
# The pancreas, liver, kidney and brain were dissected from anaesthetised mice and immediately fixed in formalin. […] Endogenous peroxidase activity was inactivated using 0.5% hydrogen peroxide in methanol prior to the antibody incubations and bound HRP conjugated antibody was detected using Sigma FAST-DAB peroxidase tablets. FITC was detected using an Olympus epifluorescence microsocope and images were captured and analysed using a digital camera and MCID software. […]
# Balb/c mice [4] = assay: Pancreatic immunoreactive insulin content by RIA on pancreas homogenates; conditions: treated 14 days previously, 15 minutes after glucose challenge
# Procedure: Groups of 9 mice were treated with bafilomycin A1 or carrier solution then fasted, anaesthetised with penotobarbitone and challenged with glucose as described for the OGTT. Blood samples for insulin assay were collected from the orbital plexus from fasted mice or from mice 15 minutes after glucose challenge using 4×75 μl haematocrit tubes for each bleed. Serum samples were diluted 1 in 5 or 1 in 20 then assayed in duplicate for insulin content using a Linco sensitive rat insulin radioimmunoassay kit. Pancreata from the mice that were bled 15 minutes after glucose challenge were dissected and frozen on dry ice. The frozen pancreata were homogenised in 2 ml of PBS containing 1 mg/ml BSA per gram of pancreas by 10 strokes in a dounce homogeniser. The slurry was sonicated using 3×10 second bursts and then centrifuged at 12,000×g for 60 minutes. The supernatants were stored at −20° C. Insulin content was determined by sensitive rat insulin RIA using a 1 in 1,000 dilution of the homogenates.
# Pancreatic immunoreactive insulin content was determined directly by RIA on homogenates of pancreas. Mice treated 14 days previously were fasted and then challenged with glucose 15 minutes prior to removal of the pancreas. […]
smiles,measurement,setting,value
CO/C1=C\C(C)=C\[C@@H](C)[C@@H](O)[C@@H](C)C/C(C)=C/C=C/[C@H](OC)[C@@H]([C@@H](C)[C@@H](O)[C@H](C)[C@@]2(O)C[C@@H](O)[C@H](C)[C@@H](C(C)C)O2)OC1=O [bafilomycin A1],total islet area as a percentage of the total area of pancreas,Balb/c mice [1]; 1 day,0.33%
same,islet size vs controls,Balb/c mice [1]; 1 day treatment group,no differences
same,total islet area as a percentage of the total area of pancreas,Balb/c mice [1]; 7 day treated mice,0.30%
same,islet size vs controls,Balb/c mice [1]; 7 day treatment group,no differences
same,total islet area as a percentage of the total area of pancreas,Balb/c mice [1]; 26 day treated mice,0.23%
same,"morphology of kidney, liver, testes and brain",Balb/c mice [1]; 90 day end-point,did not reveal any gross morphological changes
same,morphology of the islets,"Balb/c mice [1]; 90 day end-point, 2 doses",signs of fragmentation or neogenesis
same,total islet area as a percentage of the total area of pancreas,Balb/c mice [1]; 90 day treated mice,0.16%
same,islet size vs controls,Balb/c mice [1]; treated 26 days previously,significant decrease
same,mean islet size,Balb/c mice [1]; treated 26 days previously,4900 μm2
same,islet size vs controls,Balb/c mice [1]; treated 90 days previously,significant decrease
same,mean islet size,"Balb/c mice [1]; treated 90 days previously, 2 doses",2800 μm^2
same,increased level of RBG first detectable after treatment,Balb/c mice [1]; treated twice a week apart,50 days
same,weight of treated vs control groups,"Balb/c mice [1]; treated twice a week apart, followed 90 days",did not differ significantly; also recorded: No significant difference
same,random blood glucose levels (RBG) vs controls,"Balb/c mice [1]; treated twice a week apart, weekly measurement for 90 days",small but significant increase
same,blood glucose after 2 hours (OGTT),Balb/c mice [2]; 21 days after treatment,4.2 ± 0.2 mM
same,blood glucose after 2 hours (OGTT),Balb/c mice [2]; seven days after administration,4.1 ± 0.4 mM
same,fasting glucose levels,Balb/c mice [2]; treated mice,no change
same,"peak glucose level, 15 minutes after glucose challenge",Balb/c mice [2]; twenty one days after administration,12.5 ± 2.4 mM
same,net fluorescence emitted by islets (median),Balb/c mice [3]; 1 day after administration,57.9 arbitrary fluorescence units
same,net fluorescence emitted by islets (median),Balb/c mice [3]; 7 days after administration,59.9 arbitrary fluorescence units
same,more pancreatic immunoreactive insulin than controls,Balb/c mice [4],70%
same,pancreatic immunoreactive insulin content (median),Balb/c mice [4],565 μg IRI per gram of pancreas
